Biological target: T1, SUV39H1 (Homo sapiens, UniProt O43463)
T1 construct: recombinant SUV39H1
T1 sequence (O43463 1-412): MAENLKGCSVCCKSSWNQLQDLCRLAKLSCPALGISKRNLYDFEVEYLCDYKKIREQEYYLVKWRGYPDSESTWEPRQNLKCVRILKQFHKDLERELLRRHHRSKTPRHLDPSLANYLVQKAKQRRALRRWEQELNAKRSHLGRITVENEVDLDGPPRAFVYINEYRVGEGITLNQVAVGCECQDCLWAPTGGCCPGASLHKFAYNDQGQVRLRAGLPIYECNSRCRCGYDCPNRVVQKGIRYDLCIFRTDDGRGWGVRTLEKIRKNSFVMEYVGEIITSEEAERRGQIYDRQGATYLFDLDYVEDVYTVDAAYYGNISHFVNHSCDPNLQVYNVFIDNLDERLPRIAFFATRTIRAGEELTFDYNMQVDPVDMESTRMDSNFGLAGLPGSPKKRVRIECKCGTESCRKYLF
Assay: cell-free histone methyltransferase activity assay with recombinant enzyme (data not shown)
Type: biochemical

Question: With CN1C(=O)[C@@]23C[C@](C)(C#N)[C@H](c4ccc5c(c4)OCO5)N2C(=O)[C@]1(C)SS3 (racemic) [NT1721] as the compound, how does the IC50 read?
Answer: 1300 nM

Source: article PMC5349906, “NT1721, a novel epidithiodiketopiperazine, exhibits potent in vitro and in vivo efficacy against acute myeloid leukemia” (Oncotarget, 2016)
